In EP0062319A1, “3-Methyl-1-(2-(3-naphthyloxy)-ethyl)-2-pyrazolin-5-one for the treatment of the metastasis and growth of tumour cells” (BAYER AG, priority 1981, dated 1982):

Tests used:
B-16 -Melanom-Zellen = test: Tumour cell proliferation and viability in tissue culture; type: cell-based, Mäuse; conditions: 0,1 to 25 µg/ml; cell counts after 8 days; Fig. 2
Text: Die antineoplastische Wirksamkeit wurde außerdem durch direkte Messung des Wachstums der Tumorzellen in vitro in Gewebekulturen bestimmt. Diese Methode bedient sich des "Plating" oder Aufimpfens einer bekannten Anzahl von Tumorzellen auf ein Wachstumsmedium und der Bestimmung der Wirkung der Anwesenheit der zu prüfenden Verbindung auf die Tumorzellen-Proliferation. […] wurde die antineoplastische Aktivität in vivo in der Weise bestimmt, daß den Mäusen subkutan Tumorzellen injiziert wurden und das Auftreten von […] sowie […] in unbehandelten Kontrolltieren und in mit der Pyrazolon-Verbindung behandelten […] worden […] von 3 x 10^4 Zellen pro Platte überimpft. Die Zellen wurden in einem Medium aus MEM, Hank's Basic Salt Solution und 10 % […] bei Microbiological Associates, Walkersville, Maryland, kultiviert. Nach 24-stündiger Inkubation bei 37°C wurden die ZellZählungen durch […] Medium wurde […] und durch das oben bezeichnete.Medium und Pyrazolon in einem von 0,1 bis 25 μg/ml […]. Die Kontrollgruppen erhielten nur einen Austausch des Mediums. Danach wurde das Pyrazolon enthaltende Medium jeden zweiten Tag ersetzt. Nach 8 Tagen wurden Zellzählungen wie oben beschrieben durchgeführt, und die Lebensfähigkeit der Zellen wurde nach der weiter oben genannten Vitalfarbstoff-Ausschlußmethode (vital dye exclusive method) bestimmt. Die Daten sind dargestellt als Mittelwert der Zahl […] aus […]. […]

Lewis-Lungen-Karzinom [1] = test: Spontaneous (full) metastasis of subcutaneously injected Lewis lung carcinoma (lung tumour colonies) in mice; type: in vivo, C57BL/6J Mäuse; conditions: 0.08 mg daily s.c.
Text: Wie bereits weiter oben festgestellt wurde, ist die Metastase […], die durch eine Reihe komplizierter Vorgänge dargestellt wird. Gegenwärtig finden zwei "Modell"-Systeme für die Untersuchung der in vivo-Metastase verbreitete Anwendung. Das erste Modellsystem umfaßt die subkutane Injektion der Tumorzellen in das Tier. Die subkutane Injektion der Tumorzellen und anschließende Entwicklung eines Primärtumors, gefolgt von spontaner Metastase, wird als "volle" Metastase betrachtet. Ein anderes Modellsystem umfaßt die Injektion der Tumorzellen durch die Schwanzvene. In Anbetracht der Komplexität der Metastase gilt die Schwanzvenen-Injektion als künstliches und nur partielles Modellsystem, da es nur die Vorgänge während des letzteren Teils der Metastase wiedergibt. Das Schwanzvenen-Modellsystem gilt jedoch auch als außerordentlich günstig im Hinblick auf eine Standardisierung der Versuchsbedingungen [vgl."Methods in Cancer Research", Kapitel VII, Academic Press, Inc., 1978].
Als Kontrolltiere wurden (unbehandelte) C57B1/6J-Mäuse nach folgender Arbeitsweise auf volle Metastase untersucht. Zellsuspensionen der B-16 - und 3LL-Karzinom-Zellen, die wie oben unter A und B beschrieben erhalten worden waren, wurden subkutan in die rechte Achselhöhlenregion der männlichen C57BL/6J-Mäuse injiziert (0,66 mm- = 26 gauge -Nadel; 0,2 ml). […]

Lewis-Lungen-Karzinom [2] = test: Tumour incidence and final tumour weight of subcutaneous Lewis lung carcinoma in mice; type: in vivo, C57BL/6J Mäuse; conditions: killed day 22; for Gewicht: final tumour weight
Text: Die antineoplastische Wirksamkeit wurde außerdem durch direkte Messung des Wachstums der Tumorzellen in vitro in Gewebekulturen bestimmt. Diese Methode bedient sich des "Plating" oder Aufimpfens einer bekannten Anzahl von Tumorzellen auf ein Wachstumsmedium und der Bestimmung der Wirkung der Anwesenheit der zu prüfenden Verbindung auf die Tumorzellen-Proliferation. Schließlich wurde die antineoplastische Aktivität in vivo in der Weise bestimmt, daß den Mäusen subkutan Tumorzellen injiziert wurden und das Auftreten von Tumorzellenwachstum sowie das Gewicht der wachsenden Tumorzellen in unbehandelten Kontrolltieren und in mit der Pyrazolon-Verbindung behandelten Tieren bestimmt wurden.
3 mg 3-Methyl-1-[2-(2-naphthyloxy)-ethyl]-2-pyrazolin-5-on wurden in 0,6 ml Ethylalkohol gelöst, und die Lösung wurde mit konzentrierter Natronlauge auf einen pH von 9,5 eingestellt.
Syngeneischen C57BL/6J Wirts-Mäusen wurden 1 x 10^5 Lewis-Lungenkarzinom-Zellen (0,2 ml) subkutan in die Achselhöhlenregion injiziert. Nach einem Zeitraum von 24 Stunden wurde die Pyrazolon-Verbindung 21 Tage lang täglich verabreicht. Die Wirkung der Verabreichung von Theophyllin zusammen mit der Pyrazolon-Verbindung wurde ebenfalls untersucht. Während des Zeitraums wurden die Mäuse unter identischen Bedingungen der Temperatur, Lichteinwirkungsdauer, Ernährung etc. gehalten. Die Mäuse wurden 22 Tage nach der Injektion der Tumorzellen getötet und mittels einer Gesamt-Nekropsie auf die Anwesenheit subkutaner Tumoren untersucht. Vorhandene Tumoren wurden entfernt und auf einer Analysenwaage gewogen.

`CC1=NN(CCOc2ccc3ccccc3c2)C(=O)C1` [3-Methyl-1-[2-(2-naphthyloxy)-ethyl]-2-pyrazolin-5-on] was tested, and the Tumorzellen-Proliferation (B-16 -Melanom-Zellen) was “die Tumorzellen-Proliferation über den gleichen Dosierungsbereich hemmte”, the “Lungen-Tumor-Kolonien Lewis-Lungen-Zellen” value (Lewis-Lungen-Karzinom [1]; 1 x 10^5 cells s.c., killed day 21, mean ± SEM) was 0.8 ± 0.5 and the “Lungen-Tumor-Kolonien Lewis-Lungen-Zellen (fraction in brackets)” value (Lewis-Lungen-Karzinom [1]; bracketed fraction) was 2/12. For the same compound, the “Tumor-Häufigkeit Anzahl” value (Lewis-Lungen-Karzinom [2]; 0.01 mg daily s.c. for 21 days from 24 h after 10^5 3LL cells s.c.) was 3/12, the Tumor-Häufigkeit % (Lewis-Lungen-Karzinom [2]; 0.01 mg daily s.c. for 21 days) was 25% and the Tumor-Häufigkeit % (Lewis-Lungen-Karzinom [2]; 0.02 mg daily s.c. for 21 days) was 33%. For the same compound, the “Tumor-Häufigkeit Anzahl” value (Lewis-Lungen-Karzinom [2]; 0.02 mg daily s.c. for 21 days) was 4/12, the Tumor-Häufigkeit % (Lewis-Lungen-Karzinom [2]; 0.08 mg daily s.c. for 21 days) was 8% and the “Tumor-Häufigkeit Anzahl” value (Lewis-Lungen-Karzinom [2]; 0.08 mg daily s.c. for 21 days) was 1/12. The “Gewicht” value (Lewis-Lungen-Karzinom [2]; 0.01 mg daily s.c. for 21 days) was 0.74 ± 0.46 mg, the “Gewicht” value (Lewis-Lungen-Karzinom [2]; 0.02 mg daily s.c. for 21 days) was 0.49 ± 0.27 mg and the “Gewicht” value (Lewis-Lungen-Karzinom [2]; 0.08 mg daily s.c. for 21 days) was 0.16 mg.
